Read-outs that look alike come from different tables or passages of the source.
Experiments:
[1] = molecular target: recombinant BACE1 protein (Homo sapiens, UniProt P56817); assay: Biochemical FRET based assay; conditions: recombinant BACE1 1 μg/ml, 120 minutes at room temperature, pH 5.0; read-out: Biochemical FRET based assay pIC50 (converted)
Outline: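 Recombinant BACE1 (1 μg/ml final) was incubated 120 minutes at room temperature with […] Mca/Dnp-labelled 13-mer APP Swedish-mutant peptide in 40 mM citrate pH 5.0, 0.04% PEG, 4% DMSO, with or without compound. Cleavage was measured as fluorescence (ex 320/em 405 nm), given as RFU difference between T120 and T0.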

Abeta total = assay: Cellular αLisa assay in SKNBE2 cells, Abeta total; assay type: cell-based, human; conditions: Homo sapiens, SKNBE2, 18 h, incubated for 18 hours, read-out: Cellular αLisa assay in SKNBE2 cells Abetatotal pIC50 (converted)
Outline: (§1)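 Human neuroblastoma SKNBE2 cells expressing wild-type hAPP695 were incubated with compound for 18 hours. Secreted Abeta total and Abeta 1-42 in medium were quantified by sandwich αLisa: biotinylated AbN/25 on streptavidin donor beads with Ab4G8 (total) or cAb42/26 (1-42) acceptor beads. Light emission read after 1 hour (ex 650 nm, em 615 nm).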

Abeta 1-40 = conditions: 20 mg/kg, 24 h
Abeta 1-42 = assay: Cellular αLisa assay in SKNBE2 cells, Abeta 1-42; assay type: cell-based, human; conditions: Homo sapiens, SKNBE2, 18 h, incubated for 18 hours, read-out: Cellular αLisa assay in SKNBE2 cells Abeta 42 pIC50 (converted)
Outline: as §1

[2] = Single dose pharmacology in the Beagle dog, pharmacokinetic (PK) follow up; assay type: in vivo; conditions: single dose 20 mg/kg; for concentration at 24 h: both sexes
Method: Single Dose Pharmacology in the Beagle Dog
Compound 86 was tested to evaluate the effect on the beta-amyloid profile in cerebrospinal fluid (CSF) of dogs after a single dose, in combination with pharmacokinetic (PK) follow up and limited safety evaluation. 6 Beagle dogs (3 male, 3 female) were dosed with vehicle (4 ml/kg of an aqueous suspension of 20% cyclodextrin and Tween) and 6 Beagle dogs (3 male, 3 female) were dosed with compound 86 (20 mg/kg in 2 ml/kg of an aqueous 20% cyclodextrin solution) on an empty stomach. CSF was taken in conscious animals directly from the lateral ventricle via a cannula which was screwed in the skull and covered with subcutaneous tissue and skin, before and at 4, 8 and 24 hours after dosing. 8 Hours after dosing the animals got access to their regular meal for 30 minutes. Blood was taken for PK follow up (0.5, 1, 2, 4, 8 and 24 hours) and at the time of the CSF sampling, samples for serum analysis were taken. An additional sample for serum analysis was taken 10 days after dosing. The CSF samples were used for measurement of Abeta 1-37, Abeta 1-38, Abeta 1-40 and Abeta 1-42.

Abeta 1-37 = conditions: Beagle dog, single dose 20 mg/kg, at 24 h

Chain of recombinant BACE1 protein (P56817 46-501): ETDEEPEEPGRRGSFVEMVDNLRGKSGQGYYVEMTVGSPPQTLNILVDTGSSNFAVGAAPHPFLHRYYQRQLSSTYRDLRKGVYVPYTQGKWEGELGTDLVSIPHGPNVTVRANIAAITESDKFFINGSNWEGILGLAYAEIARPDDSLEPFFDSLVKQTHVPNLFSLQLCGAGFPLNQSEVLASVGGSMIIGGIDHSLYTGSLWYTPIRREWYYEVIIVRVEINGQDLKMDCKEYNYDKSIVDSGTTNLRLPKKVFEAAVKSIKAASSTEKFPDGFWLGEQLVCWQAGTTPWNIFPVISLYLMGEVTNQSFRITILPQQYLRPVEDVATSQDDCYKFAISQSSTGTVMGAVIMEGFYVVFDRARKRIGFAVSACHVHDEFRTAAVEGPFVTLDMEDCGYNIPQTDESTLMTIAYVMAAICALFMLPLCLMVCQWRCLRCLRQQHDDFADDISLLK

**Q.** Which results are given for `C[C@]1(c2cccc(NC(=O)c3ccc(Cl)cn3)c2)N=C(N)CO[C@@H]1F` (single isomer, unassigned) [Compound 86, (R*,R*)—N-[3-(5-amino-2-fluoro-3-methyl-3,6-dihydro-2H-1,4-oxazin-3-yl)phenyl]-5-chloropyridine-2-carboxamide]?
**A.** IC50 [1]: 38.9 nM; IC50 (Abeta total): 6.17 nM; decrease in Abeta 1-40 in CSF compared to own baseline (Abeta 1-40): > 90%; melting point: 157.7 °C; IC50 (Abeta 1-42): 6.92 nM; concentration at 24 h ([2]; CSF, at 24 h, read-out: CSF levels): 45 ng/mL; concentration at 24 h ([2]; plasma, up to at least 24 h post dosing, read-out: plasma levels): 1440 ng/mL; clearance [2]: slow clearance; decrease in Abeta 1-37 in CSF compared to own baseline (Abeta 1-37): 72%
